This note sets out measurements from article PMC9821108, “Biochemical and Structural Analyses Shed Light on the Mechanisms of RadD DNA Binding and Its ATPase from Escherichia coli” (International Journal of Molecular Sciences, 2023).

Data set [1] addresses T1, RadD (Escherichia coli, UniProt P33919).
T1 construct: recombinant RadD from RadD-pET-28a / RadD-pGEX-6p-1 plasmids expressed in E. coli; full-length with RD1, RD2, ZFD, CTD
T1 sequence (P33919 1-586): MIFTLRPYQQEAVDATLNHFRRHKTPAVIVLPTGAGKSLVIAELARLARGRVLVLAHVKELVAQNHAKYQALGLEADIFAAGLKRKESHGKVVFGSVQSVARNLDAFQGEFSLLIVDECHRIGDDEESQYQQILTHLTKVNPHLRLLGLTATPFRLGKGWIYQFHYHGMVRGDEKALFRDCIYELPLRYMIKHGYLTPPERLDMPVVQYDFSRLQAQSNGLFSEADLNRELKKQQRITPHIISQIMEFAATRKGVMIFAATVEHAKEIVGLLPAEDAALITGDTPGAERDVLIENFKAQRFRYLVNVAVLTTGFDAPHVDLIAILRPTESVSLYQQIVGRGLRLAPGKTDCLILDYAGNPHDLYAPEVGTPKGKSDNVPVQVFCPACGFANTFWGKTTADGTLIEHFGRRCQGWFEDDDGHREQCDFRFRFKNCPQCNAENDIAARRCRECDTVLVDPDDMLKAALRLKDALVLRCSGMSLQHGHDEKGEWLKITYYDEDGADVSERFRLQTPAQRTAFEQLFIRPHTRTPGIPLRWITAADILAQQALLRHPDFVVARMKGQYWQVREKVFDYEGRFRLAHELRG
In words: X-ray crystal structure, […] Å. It is filed as binding. Conditions: co-crystallised with 5 mM ATP and 5 mM MgCl2, ATP hydrolysed to ADP in the crystal; site between RD1 and RD2.

The target in data set [2] is T2, RadD (Escherichia coli, UniProt P33919, K37A).
T2 construct: recombinant RadD from RadD-pET-28a / RadD-pGEX-6p-1 plasmids expressed in E. coli; full-length with RD1, RD2, ZFD, CTD
In words: malachite green phosphate release ATPase assay. The format is biochemical. Conditions: 0.375 μM enzyme, 1 mM ATP; buffer as above.

Data set [3] deals with T3, RadD (Escherichia coli, UniProt P33919, R6A).
T3 construct: recombinant RadD from RadD-pET-28a / RadD-pGEX-6p-1 plasmids expressed in E. coli; full-length with RD1, RD2, ZFD, CTD
In words: malachite green phosphate release ATPase assay. The format is biochemical. The note with it: 0.375 μM enzyme, 1 mM ATP; buffer as above.

In data set [4] the target is T4, RadD (Escherichia coli, UniProt P33919, K68A).
T4 construct: recombinant RadD from RadD-pET-28a / RadD-pGEX-6p-1 plasmids expressed in E. coli; full-length with RD1, RD2, ZFD, CTD
In words: malachite green phosphate release ATPase assay. The format is biochemical. Conditions: 0.375 μM enzyme, 1 mM ATP; buffer as above.

Data set [5] deals with T5, RadD (Escherichia coli, UniProt P33919, R343A).
T5 construct: recombinant RadD from RadD-pET-28a / RadD-pGEX-6p-1 plasmids expressed in E. coli; full-length with RD1, RD2, ZFD, CTD
In words: malachite green phosphate release ATPase assay. The format is biochemical. Conditions: 0.375 μM enzyme, 1 mM ATP; buffer as above.

The target in data set [6] is T6, RadD (Escherichia coli, UniProt P33919, G34E).
T6 construct: recombinant RadD from RadD-pET-28a / RadD-pGEX-6p-1 plasmids expressed in E. coli; full-length with RD1, RD2, ZFD, CTD
In words: malachite green phosphate release ATPase assay. Conditions: 0.375 μM enzyme, 1 mM ATP; buffer as above. It is filed as biochemical.

The target in data set [7] is T7, RadD (Escherichia coli, UniProt P33919, G36E).
T7 construct: recombinant RadD from RadD-pET-28a / RadD-pGEX-6p-1 plasmids expressed in E. coli; full-length with RD1, RD2, ZFD, CTD
In words: malachite green phosphate release ATPase assay. The format is biochemical. The note with it: 0.375 μM enzyme, 1 mM ATP; buffer as above.

The target of data set [8] is T8, RadD (Escherichia coli, UniProt P33919, D117R).
T8 construct: recombinant RadD from RadD-pET-28a / RadD-pGEX-6p-1 plasmids expressed in E. coli; full-length with RD1, RD2, ZFD, CTD
In words: malachite green phosphate release ATPase assay. It is filed as biochemical. The note with it: 0.375 μM enzyme, 1 mM ATP; buffer as above.

Data set [9] concerns the target T1, RadD. In words: X-ray crystal structure, […] Å. The format is binding. Conditions: co-crystallised with 5 mM ATPγS, no Mg added; site between RD1 and RD2.
The target of data set [10] is RadD CTD (Escherichia coli) (UniProt P33919). In words: EMSA. The note with it: 20 mM Bis-Tris pH 6.5, 50 mM NaCl, 15% glycerol, 10 mM beta-mercaptoethanol, 37 C 30 min, 33 nM HJ, 0-20 uM RadD; 8% native PAGE in 0.5x TBE; text says …. A general note: In EMSA bound probe runs differently from free probe, usually more slowly.
Data set [11] addresses RadD ZFD (Escherichia coli) (UniProt P33919). In words: EMSA. Conditions: 20 mM Bis-Tris pH 6.5, 50 mM NaCl, 15% glycerol, 10 mM beta-mercaptoethanol, 37 C 30 min, 33 nM HJ, 0-20 uM RadD; 8% native PAGE in 0.5x TBE; text says ….
Substrate in data set [12]: Nc1ncnc2c1ncn2[C@@H]1O[C@H](COP(=O)(O)OP(=O)(O)OP(=O)(O)O)[C@@H](O)[C@H]1O
In words: malachite green phosphate release ATPase assay. It is filed as biochemical, Escherichia coli. Conditions: 0.4 μM RadD, 20 mM Hepes pH 7.5, 150 mM NaCl, 3 mM MgCl2, 20 °C, 30 min, no DNA or SSB.

T3 sequence (P33919 whole entry R6A): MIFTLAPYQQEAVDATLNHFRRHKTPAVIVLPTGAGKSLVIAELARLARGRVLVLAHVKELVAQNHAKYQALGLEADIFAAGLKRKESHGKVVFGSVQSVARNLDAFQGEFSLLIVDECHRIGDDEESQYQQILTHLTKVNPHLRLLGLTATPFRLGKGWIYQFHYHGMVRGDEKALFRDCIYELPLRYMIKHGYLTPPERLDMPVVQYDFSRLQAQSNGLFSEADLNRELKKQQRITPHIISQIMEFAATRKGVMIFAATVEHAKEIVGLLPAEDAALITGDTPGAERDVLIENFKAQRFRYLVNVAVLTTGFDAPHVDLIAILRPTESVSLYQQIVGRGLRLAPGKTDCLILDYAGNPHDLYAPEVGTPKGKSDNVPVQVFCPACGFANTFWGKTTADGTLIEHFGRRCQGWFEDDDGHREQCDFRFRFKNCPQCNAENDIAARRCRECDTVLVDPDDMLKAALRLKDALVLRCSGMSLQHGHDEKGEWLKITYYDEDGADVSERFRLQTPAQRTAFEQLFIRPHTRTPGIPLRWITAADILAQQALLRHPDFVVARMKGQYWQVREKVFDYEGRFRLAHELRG
T8 sequence (P33919 whole entry D117R): as the sequence (P33919 whole entry R6A) above, with A6R, D117R counted along it
T7 sequence (P33919 whole entry G36E): as the sequence (P33919 whole entry R6A) above, with A6R, G36E counted along it
T4 sequence (P33919 whole entry K68A): as the sequence (P33919 whole entry R6A) above, with A6R, K68A counted along it
T6 sequence (P33919 whole entry G34E): as the sequence (P33919 whole entry R6A) above, with A6R, G34E counted along it
T5 sequence (P33919 whole entry R343A): as the sequence (P33919 whole entry R6A) above, with A6R, R343A counted along it
T2 sequence (P33919 whole entry K37A): as the sequence (P33919 whole entry R6A) above, with A6R, K37A counted along it

Consider `Nc1ncnc2c1ncn2[C@@H]1O[C@H](COP(=O)(O)OP(=O)(O)O)[C@@H](O)[C@H]1O` [ADP], for which the “X-ray crystal structure, 2.7 Å” value at RadD [1] was “RadD/ADP PDB: 8H5Y”.
Consider `Nc1ncnc2c1ncn2[C@@H]1O[C@H](COP(=O)(O)OP(=O)(O)OP(=O)(O)O)[C@@H](O)[C@H]1O` [ATP], for which the ATPase activity entry was “mutant G34E, G36E, K37A, D117R, and R343A lost their ATPase activity” at RadD [2]; “mutants R6A and N9A were not significantly different from the wild-type” at RadD [3]; “The ATPase activity of mutant K68A is three times that of the wild-type” at RadD [4]; “mutant G34E, G36E, K37A, D117R, and R343A lost their ATPase activity” on RadD [5]; “mutant G34E, G36E, K37A, D117R, and R343A lost their ATPase activity” at RadD [6]; “mutant G34E, G36E, K37A, D117R, and R343A lost their ATPase activity” at RadD [7]. Further, the ATPase activity result at RadD [8] is “mutant G34E, G36E, K37A, D117R, and R343A lost their ATPase activity”.
In the case of `Nc1ncnc2c1ncn2[C@@H]1O[C@H](COP(=O)(O)OP(=O)(O)OP(O)(O)=S)[C@@H](O)[C@H]1O` [ATPγS], on RadD [9], the “X-ray crystal structure, 3.0 Å” value is on record as “RadD/ATPγS PDB: 8H5Z”.
Turning to “CCGCTACCAGTGATCACCAATGGATTGCTAGGACATCTTTGCCCACCTGCAGGTTCACCC / TGGGTGAACCTGCAGGTGGGCAAAGATGTCCTAGCAATCCATTGTCTATGACGTCAAGCTC / GAGCTTGACGTCATAGACAATGGATTGCTAGGACATCTTTGCCGTCTTGTCAATATCGGC / TGCCGATATTGACAAGACGGCAAAGATGTCCTAGCAATCCATTGGTGATCACTGGTAGCGG [Holliday junction (HJ)]”, the binding signal was 47 % of WT in [10] and 43 % of WT in data set [11].

B1: RadD (Escherichia coli K-12) (protein)
chain: T1 sequence (P33919 1-586)
notes: recombinant RadD from RadD-pET-28a / RadD-pGEX-6p-1 plasmids expressed in E. coli; full-length with RD1, RD2, ZFD, CTD
In the case of B1, in [12], the Km was 3.48 mM.

One may read the Km as the substrate concentration at which the rate is half of its maximum.
